What was measured:
[1] = log P by HPLC (OECD Guideline 117), method [a] acidic range pH 2.7; format: physicochemical; conditions: for chromatographic logP: reversed-phase (RP) C18 HPLC column
Protocol: (§1) The log P values were determined in accordance with OECD Guideline 117 (EC Directive 92/69/EEC) by HPLC (high-performance liquid chromatography) using reversed-phase (RP) columns (C18), by the following methods: [a] The LC-MS determination in the acidic range is carried out at pH 2.7 with 0.1% aqueous formic acid and acetonitrile (contains 0.1% formic acid) as eluents; linear gradient from 10% acetonitrile to 95% acetonitrile. [b] LC-MS determination in the neutral range is effected at pH 7.8 with 0.001 molar aqueous ammonium hydrogencarbonate solution and acetonitrile as eluents; linear gradient from 10% acetonitrile to 95% acetonitrile. Calibration is effected using unbranched alkan-2-ones (having 3 to 16 carbon atoms) with known log P values (log P values determined on the basis of the retention times by linear interpolation between two successive alkanones).

[2] = log P by HPLC (OECD Guideline 117), method [b] neutral range pH 7.8; format: physicochemical; conditions: for chromatographic logP: reversed-phase (RP) C18 HPLC column
Protocol: as §1

Myzus persicae = Myzus persicae spray test; format: in vivo; conditions: application rate 500 g/ha, Chinese cabbage leaf discs, after 6 days; for pest or weed control at 500 g/ha: Myzus persicae, foliar, 144 h, read-out: efficacy (aphids killed)
Protocol: Myzus persicae—Spray Test Solvent: 78 parts by weight of acetone • • 1.5 parts by weight of dimethylformamide Emulsifier: alkylaryl polyglycol ether To produce a suitable active ingredient formulation, 1 part by weight of active ingredient is dissolved using the specified parts by weight of solvent and made up with water containing an emulsifier concentration of 1000 ppm until the desired concentration is attained. To produce further test concentrations, the formulation is diluted with emulsifier-containing water. Discs of Chinese cabbage leaves (Brassica pekinensis) infested by all stages of the green peach aphid (Myzus persicae) are sprayed with an active ingredient formulation of the desired concentration. After 6 days, the efficacy in % is determined. 100% means that all the aphids have been killed and 0% means that none of the aphids have been killed.

| Compound | logP[a] [1] | chromatographic logP [1] | further results |
| --- | --- | --- | --- |
| 5-(Ethylsulphanyl)-4-methyl-2-[2-(pyridin-3-yl)-1,3-benzothiazol-6-yl]-2,4-dihydro-33H-1,2,4-triazol-3-one [compound 52] | 2.84 | – | logP[b] [2]: 2.97 |
| Ic1ccc2nc(-c3cccnc3)sc2c1 [I-a-2, 6-Iodo-2-(pyridin-3-yl)-1,3-benzothiazole] | – | 3.37 | chromatographic logP [2]: 3.39 |
| CC1(C)OB(c2ccc3nc(-c4cccnc4)sc3c2)OC1(C)C [I-h-1, 2-(Pyridin-3-yl)-6-(4,4,5,5-tetramethyl-1,3,2-dioxaborolan-2-yl)-1,3-benzothiazole] | – | 4.03 | chromatographic logP [2]: 4.14 |
| c1ccc(-c2ccc3nc(-c4cccnc4)sc3c2)cc1 [compound 1] | 3.7 | – | logP[b] [2]: 3.87 |
| Fc1ccccc1-c1ccc2nc(-c3cccnc3)sc2c1 [compound 5] | 3.7 | – | logP[b] [2]: 3.78 |
| Clc1ccccc1-c1ccc2nc(-c3cccnc3)sc2c1 [compound 6] | 4.05 | – | logP[b] [2]: 4.2 |
| c1cncc(-c2nc3ccc(NCC4CC4)cc3s2)c1 [compound 14] | 2.5 | – | logP[b] [2]: 2.94 |
| c1cncc(-c2nc3ccc(N4CCOCC4)cc3s2)c1 [compound 15, 6-(Morpholin-4-yl)-2-(pyridin-3-yl)-1,3-benzothiazole] | – | 2 | chromatographic logP [2]: 2.14 |
| c1ccc(CNc2ccc3nc(-c4cccnc4)sc3c2)cc1 [compound 16] | 2.91 | – | logP[b] [2]: 3.12 |
| CC(Nc1ccc2nc(-c3cccnc3)sc2c1)c1ccccc1 (centres unmarked) [compound 17] | – | 3.23 | chromatographic logP [2]: 3.33 |
| Cc1cc(C)c([S+]([O-])CC(F)(F)F)cc1Nc1ccc2nc(-c3cccnc3)sc2c1 (centres unmarked) [compound 19, N-{2,4-Dimethyl-5-[(2,2,2-trifluoroethyl)sulphinyl]phenyl}-2-(pyridin-3-yl)-1,3-benzothiazol-6-amine] | – | – | chromatographic logP [2]: 3.07 |
| Cc1cc(F)c(Nc2ccc3nc(-c4cccnc4)sc3c2)cc1[S+]([O-])CC(F)(F)F (centres unmarked) [compound 21, N-{2-Fluoro-4-methyl-5-[(2,2,2-trifluoroethyl)sulphinyl]phenyl}-2-(pyridin-3-yl)-1,3-benzothiazol-6-amine] | – | 2.85 | chromatographic logP [2]: 2.9 |
| CCSc1ccccc1Nc1ccc2nc(-c3cccnc3)sc2c1 [compound 22] | 4.32 | – | logP[b] [2]: 4.44 |
| CC[S+]([O-])c1ccccc1Nc1ccc2nc(-c3cccnc3)sc2c1 (centres unmarked) [compound 23] | 2.25 | – | logP[b] [2]: 2.24 |
| c1ccc(Nc2ccc3nc(-c4cccnc4)sc3c2)nc1 [compound 24, N-(Pyridin-2-yl)-2-(pyridin-3-yl)-1,3-benzothiazol-6-amine] | – | 1.04 | chromatographic logP [2]: 2.47 |
| c1cncc(-c2nc3ccc(-n4cccn4)cc3s2)c1 [compound 26] | – | – | logP[b] [2]: 2.2 |
| c1cncc(-c2nc3ccc(-n4cncn4)cc3s2)c1 [compound 31, 2-(Pyridin-3-yl)-6-(1H-1,2,4-triazol-1-yl)-1,3-benzothiazole] | – | – | chromatographic logP [2]: 1.63 |
| O=C(NCC(F)(F)F)c1ccc2nc(-c3cccnc3)sc2c1 [compound 32, 2-(Pyridin-3-yl)-N-(2,2,2-trifluoroethyl)-1,3-benzothiazole-6-carboxamide] | – | 1.96 | pest or weed control at 500 g/ha (Myzus persicae): 100% |
| O=C(NCc1ccccn1)c1ccc2nc(-c3cccnc3)sc2c1 [compound 33, 2-(Pyridin-3-yl)-N-(pyridin-2-ylmethyl)-1,3-benzothiazole-6-carboxamide] | – | 1.15 | pest or weed control at 500 g/ha (Myzus persicae): 100% |
| Cn1ccc(-c2ccc3nc(-c4cccnc4)sc3c2)n1 [compound 36] | 2.05 | – | logP[b] [2]: 2.03 |
| CSCn1cc(-c2ccc3nc(-c4cccnc4)sc3c2)cn1 [compound 38, 6-{1-[(Methylsulphanyl)methyl]-1H-pyrazol-4-yl}-2-(pyridin-3-yl)-1,3-benzothiazole] | – | 2.4 | chromatographic logP [2]: 2.54 |
| Cn1cncc(-c2ccc3nc(-c4cccnc4)sc3c2)c1=O [compound 43] | 1.34 | – | logP[b] [2]: 1.51 |
| COc1nn(-c2ccc3nc(-c4cccnc4)sc3c2)c(=O)n1C [compound 50] | – | – | efficacy (aphids killed) (Myzus persicae): 90% |
| Cn1c(OCC(F)(F)F)nn(-c2ccc3nc(-c4cccnc4)sc3c2)c1=O [compound 53] | 2.8 | – | logP[b] [2]: 2.88 |
| Cn1c(SCC(F)(F)F)nn(-c2ccc3nc(-c4cccnc4)sc3c2)c1=O [compound 54] | 2.84 | – | logP[b] [2]: 2.91 |
| CSCc1nn(-c2ccc3nc(-c4cccnc4)sc3c2)c(=O)n1C [compound 55, 4-Methyl-5-[(methylsulphanyl)methyl]-2-[2-(pyridin-3-yl)-1,3-benzothiazol-6-yl]-2,4-dihydro-3H-1,2,4-triazol-3-one] | – | 2.23 | chromatographic logP [2]: 2.36 |
| CS(=O)(=O)CCNC(=O)c1ccc2nc(-c3cncc(F)c3)sc2c1 [compound 72] | – | – | efficacy (aphids killed) (Myzus persicae): 90% |

More lines, main results first:

| logP[a] [1] | chromatographic logP [1] | Compound | further results |
| --- | --- | --- | --- |
| 1.22 | – | CNC(=O)c1ccc2nc(-c3cccnc3)sc2c1 [compound 57] | efficacy (aphids killed) (Myzus persicae): 100% |
| 1.67 | – | CNC(=O)c1ccc2nc(-c3cncc(F)c3)sc2c1 [compound 58] | efficacy (aphids killed) (Myzus persicae): 100% |
| 1.42 | – | CN(C)C(=O)c1ccc2nc(-c3cccnc3)sc2c1 [compound 59] | efficacy (aphids killed) (Myzus persicae): 100% |
| 1.9 | – | CN(C)C(=O)c1ccc2nc(-c3cncc(F)c3)sc2c1 [compound 60] | efficacy (aphids killed) (Myzus persicae): 100% |
| 1.71 | – | CCN(C)C(=O)c1ccc2nc(-c3cccnc3)sc2c1 [compound 61] | efficacy (aphids killed) (Myzus persicae): 100% |
| 2.2 | – | CCN(C)C(=O)c1ccc2nc(-c3cncc(F)c3)sc2c1 [compound 62] | efficacy (aphids killed) (Myzus persicae): 100% |
| 2.02 | – | O=C(NCC(F)(F)F)c1ccc2nc(-c3cccnc3)sc2c1 [compound 63] | – |
| 2.51 | – | O=C(NCC(F)(F)F)c1ccc2nc(-c3cncc(F)c3)sc2c1 [compound 64] | efficacy (aphids killed) (Myzus persicae): 90% |
| 1.64 | – | CON(C)C(=O)c1ccc2nc(-c3cccnc3)sc2c1 [compound 65] | efficacy (aphids killed) (Myzus persicae): 100% |
| 2.16 | – | CON(C)C(=O)c1ccc2nc(-c3cncc(F)c3)sc2c1 [compound 66] | efficacy (aphids killed) (Myzus persicae): 100% |
| 2.39 | – | CC(F)(F)CNC(=O)c1ccc2nc(-c3cncc(F)c3)sc2c1 [compound 68] | efficacy (aphids killed) (Myzus persicae): 100% |
| – | 1.83 | CSCCNC(=O)c1ccc2nc(-c3cccnc3)sc2c1 [compound 69, N-[2-(Methylsulphanyl)ethyl]-2-(pyridin-3-yl)-1,3-benzothiazole-6-carboxamide] | pest or weed control at 500 g/ha (Myzus persicae): 90% |
| 2.31 | – | CSCCNC(=O)c1ccc2nc(-c3cncc(F)c3)sc2c1 [compound 70] | efficacy (aphids killed) (Myzus persicae): 90% |
| 3.76 | – | O=C(Nc1cccc(SC(F)(F)F)c1)c1ccc2nc(-c3cccnc3)sc2c1 [compound 73] | – |
| – | 4.29 | O=C(Nc1cccc(SC(F)(F)F)c1)c1ccc2nc(-c3cncc(F)c3)sc2c1 [compound 74, 2-(5-Fluoropyridin-3-yl)-N-{3-[(trifluoromethyl)sulphanyl]phenyl}-1,3-benzothiazole-6-carboxamide] | – |
| – | 3.26 | O=C(Nc1cccc([S+]([O-])C(F)(F)F)c1)c1ccc2nc(-c3cncc(F)c3)sc2c1 (centres unmarked) [compound 75, 2-(5-Fluoropyridin-3-yl)-N-{3-[(trifluoromethyl)sulphinyl]phenyl}-1,3-benzothiazole-6-carboxamide] | – |
| – | 1.84 | CCC(=O)N(C)c1ccc2nc(-c3cccnc3)sc2c1 [compound 76, N-Methyl-N-[2-(pyridin-3-yl)-1,3-benzothiazol-6-yl]propanamide] | – |
| 1.94 | – | CN(C(=O)C1CCS(=O)(=O)C1)c1ccc2nc(-c3cncc(F)c3)sc2c1 (centres unmarked) [compound 83] | – |
| 3.24 | – | CN(C(=O)c1cccc(SC(F)(F)F)c1)c1ccc2nc(-c3cccnc3)sc2c1 [compound 84] | – |
| – | 3.88 | CN(C(=O)c1cccc(SC(F)(F)F)c1)c1ccc2nc(-c3cncc(F)c3)sc2c1 [compound 85, N-[2-(5-Fluoropyridin-3-yl)-1,3-benzothiazol-6-yl]-N-methyl-3-[(trifluoromethyl)sulphanyl]benzamide] | – |
| 2.63 | – | O=C(Nc1ccc2nc(-c3cccnc3)sc2c1)c1cccc([S+]([O-])C(F)(F)F)c1 (centres unmarked) [compound 86] | – |
| – | 3.27 | O=C(Nc1ccc2nc(-c3cncc(F)c3)sc2c1)c1cccc([S+]([O-])C(F)(F)F)c1 (centres unmarked) [compound 87, N-[2-(5-Fluoropyridin-3-yl)-1,3-benzothiazol-6-yl]-3-[(trifluoromethyl)sulphinyl]benzamide] | – |

— patent US20170325459A1, “BICYCLIC COMPOUNDS AS PEST CONTROL AGENTS” (Bayer CropScience Aktiengesellschaft, priority 2014, published 2017)
